Test results from patent publication US20200163332A1, “METHOD OF IMPROVING CROP SAFETY” (Bayer CropScience LP, priority 2017, published 2020).
“And” between values parts separate entries of the source, which are not always exact repeats. Equal entries are not always repeated. Where two headings read alike, the source gives them in different places.

Tests used:
[1] = tested on: Soybean seeds of the variety Williams 82; conditions: for Average Area (Total Leaf Area) / Average Height (Plant Height): 15 Days after Planting
Experimental: Plant heights and total leaf area were determined 15 days after planting. The total leaf area was calculated by adding the unifoliate leaf area and the trifoliate leaf area of a soybean plant. Between 11 and 15 replicates were evaluated for each measurement. Average values along with their standard errors are reported.

[2] = tested on: Soybean seeds of the variety Williams 82; conditions: with ILEVO 0.15 mg ai per seed, versus ILEVO alone, CaCl2•2 H2O 10.000 mM, about 10 days after planting
Experimental: All solutions were pH adjusted to pH 5.6-6.2. In addition, a seed treatment was prepared with a cobalt and molybdenum combination (“CoMo”) containing the cobalt chloride and sodium molybdate applied at the respective doses shown in Table 9. A commercial zinc solution was also applied as a seed treatment. “Macro”, “Micro” and “Complete” nutrient solution cocktails which combined all the respective nutrients from Table 9 into one nutrient solution were included as seed treatments.
About 10 days after planting the treated seeds, the emerging seedlings were analyzed to determine their average plant height and average unifoliate leaf area.

[3] = tested on: Soybean seeds of the variety Williams 82; assay: Example A: soybean seed treatment with antioxidants, with or without Fluopyram; cotyledon total and healthy area; conditions: for Average Cotyledon Area (mm^2) Growth Promotion with Antioxidant / Increase in Healthy Area % Difference: antioxidant at effective concentration versus no antioxidant; for Average Cotyledon Area / Average % Healthy Area / Average Healthy Area: after 10 days
[4] = ILEVO 0.15 mg ai per seed + 10 mM CaCl2•2 H2O
[5] = ILEVO 0.15 mg ai per seed + 75 mM CaCl2•2 H2O
[6] = ILEVO 0.15 mg ai per seed + 150 mM CaCl2•2 H2O
[7] = calcium chloride added to ILEVO seed treatment versus ILEVO alone, effect increased at higher concentrations
[8] = two additional soybean varieties besides Williams 82
[9] = UTC seeds (no FLU) plus antioxidant at effective concentration (Beta-Carotene 200 μM, Co-enzyme Q10 3 μM, Meso-Zeaxanthin 250 ppm, L-ascorbic acid 800 ppm, alpha tocopherol phosphate disodium 100 ppm)
[10] = UTC seeds (no FLU) plus antioxidant at effective concentration (as in E7)
[11] = seeds treated with FLU 0.15 mg ai/seed plus antioxidant at effective concentration (200 μM, 3 μM, 250 ppm, 800 ppm, 100 ppm as in E4)
[12] = seeds treated with FLU 0.15 mg ai/seed plus antioxidant at effective concentration (Beta-Carotene 200 μM, Co-enzyme Q10 3 μM, Meso-Zeaxanthin 250 ppm, L-ascorbic acid 800 ppm, alpha tocopherol phosphate disodium 100 ppm)
[13] = FLU 0.15 mg ai/seed alone (antioxidant 0 μM / 0 ppm; control of the respective antioxidant series)

| Compound | Average Cotyledon Area (mm^2) Growth Promotion with Antioxidant ([3]; FLU-treated seeds) [mm^2] | Increase in Healthy Area % Difference ([3]; FLU-treated seeds) [%] | Average Cotyledon Area [3, 9] [mm^2] | Average % Healthy Area [3, 10] [%] | Average Healthy Area [3, 10] [mm^2] | Average Cotyledon Area (mm^2) Growth Promotion with Antioxidant ([3]; UTC seeds (no FLU)) [mm^2] | Increase in Healthy Area % Difference ([3]; UTC seeds (no FLU)) [%] | Average % Healthy Area [3, 11] [%] | Average Healthy Area [3, 11] [mm^2] | Average Cotyledon Area [3, 12] [mm^2] | also measured |
| --- | --- | --- | --- | --- | --- | --- | --- | --- | --- | --- | --- |
| [Ca+2].[Cl-].[Cl-] [CaCl2•2 H2O, calcium chloride] | – | – | – | – | – | – | – | – | – | – | Average Area (Total Leaf Area) [1, 4]: 46.70 cm^2; Average Height (Plant Height) [1, 4]: 12.93 cm; Average Area (Total Leaf Area) [1, 5]: 53.89 cm^2; Average Height (Plant Height) [1, 5]: 13.69 cm; Average Area (Total Leaf Area) [1, 6]: 53.03 cm^2; Average Height (Plant Height) [1, 6]: 14.31 cm; height of the soybean plants [1, 7]: significantly increased; total leaf area of the soybean plants [1, 7]: significantly increased; effect on height of soybean plants treated with ILEVO [1, 8]: positive effect; effect on leaf area of soybean plants treated with ILEVO [1, 8]: positive effect; average plant height ([2]; FIG. 1): significantly increased; average unifoliate leaf area ([2]; FIG. 2): significantly increased |
| COC1=C(OC)C(=O)C(C/C=C(\C)CC/C=C(\C)CC/C=C(\C)CC/C=C(\C)CC/C=C(\C)CC/C=C(\C)CC/C=C(\C)CC/C=C(\C)CC/C=C(\C)CCC=C(C)C)=C(C)C1=O [Co-enzyme Q10] | 19.49 | 10.25 | 416.55 | 100.00 | 416.55 | 47.57 | 0.00 | 76.54 | 240.72 | 312.31 | – |
| O=C(NCCc1ncc(C(F)(F)F)cc1Cl)c1ccccc1C(F)(F)F [FLU, Fluopyram, reference compound] | – | – | – | – | – | – | – | – | – | – | Average % Healthy Area [3, 13]: 59.63% and 67.93% and 68.20% and 60.08% and 66.29%; Average Cotyledon Area [3, 13]: 252.85 mm^2 and 307.56 mm^2 and 290.71 mm^2 and 237.73 mm^2 and 292.81 mm^2; Average Healthy Area [3, 13]: 153.20 mm^2 and 210.37 mm^2 and 199.35 mm^2 and 142.71 mm^2 and 195.10 mm^2 |
| Meso-Zeaxanthin | 78.23 | 10.05 | 350.59 | 99.66 | 349.18 | 30.66 | 4.59 | 69.68 | 230.46 | 331.07 | – |
